Assay results taken from ChEMBL document CHEMBL3046046, “Design, synthesis, and QSAR study of novel 2-(2,3-dioxo-2,3-dihydro-1H-indol-1-yl)-N-phenylacetamide derivatives as cytotoxic agents” (Med Chem Res, 2011).

Experiments:
Vero = assay: Cytotoxicity against Chlorocebus aethiops (African green monkey) Vero cells after 72 hr by XTT assay; format: cell-based; conditions: Chlorocebus sabaeus
MCF7 [1] = assay: Cytotoxicity against Homo sapiens (human) MCF7 cells after 72 hr by XTT assay; format: functional, cell-based; conditions: MCF7, 72 h
[2] = Cytotoxicity against Chlorocebus aethiops (African green monkey) Vero cells assessed as cell survival after 72 hr by XTT assay; format: cell-based; parameters: concentration or dose not given beside the values; conditions: chlorocebus sabaeus, read-out: Activity
MCF7 [3] = assay: Cytotoxicity against Homo sapiens (human) MCF7 cells assessed as cell survival after 72 hr by XTT assay; format: functional; parameters: concentration or dose not given beside the values

Row | SMILES | IC50 (Vero) | IC50 (MCF7 [1]) | viability at 72 h [2] | Activity (MCF7 [3])
1 | O=C(CN1C(=O)C(=O)c2cc(Br)cc(Br)c21)Nc1ccc([N+](=O)[O-])cc1 | 38.1 µM | 1.96 µM |  | 
2 | Cc1ccc(NC(=O)CN2C(=O)C(=O)c3cc(Br)cc(Br)c32)cc1 | 25 µM | 2.43 µM |  | 
3 | O=C(CN1C(=O)C(=O)c2cc(Br)cc(Br)c21)Nc1ccccc1[N+](=O)[O-] | 26 µM | 2.04 µM |  | 
4 | Cc1ccccc1NC(=O)CN1C(=O)C(=O)c2cc(Br)cc(Br)c21 | 29.9 µM | 3.85 µM |  | 
5 | O=C(CN1C(=O)C(=O)c2ccccc21)Nc1ccc([N+](=O)[O-])cc1 |  |  | > 50% | >50%
6 | Cc1ccc(NC(=O)CN2C(=O)C(=O)c3ccccc32)cc1 |  |  | > 50% | >50%
7 | O=C(CN1C(=O)C(=O)c2ccccc21)Nc1ccccc1[N+](=O)[O-] |  |  | > 50% | >50%
8 | Cc1ccccc1NC(=O)CN1C(=O)C(=O)c2ccccc21 |  |  | > 50% | >50%
9 | O=C(CN1C(=O)C(=O)c2cc(Br)cc(Br)c21)Nc1ccccc1 | 28.1 µM | 3.91 µM |  | 
10 | O=C(CN1C(=O)C(=O)c2ccccc21)Nc1ccccc1 |  |  | > 50% | >50%
11 | CC[C@]1(O)C[C@@H]2CN(CCc3c([nH]c4ccccc34)[C@@](C(=O)OC)(c3cc4c(cc3OC)N(C)[C@H]3[C@@](O)(C(=O)OC)[C@H](OC(C)=O)[C@]5(CC)C=CCN6CC[C@]43[C@@H]65)C2)C1 [VINBLASTINE] | 27.1 µM | 1.9 µM |  | 
